One data set has as its target BSA (Bos taurus, UniProt P02769). Put plainly: Phage ELISA on BSA (background control protein). The format is binding. As to the method:
(§1) 96 well plates were coated overnight with GIT receptor, BSA and, optionally, IDE (insulin degrading enzyme, an irrelevant His-fusion protein)or hTF. The plates were 5 blocked for one hour with 0.5% BSA-PBS. After clarification, the amplified phage were diluted 1:100 in […] plus 0.05% Tween 20 in PBS and added to the plates. Following incubation of the plates on a rotator for 1 to 2 hours, the plates were washed 5 times with 1% BSA plus 0.05% Tween 20 in PBS. Dilute anti-M13-HRP conjugate (anti-M13 antibody linked to horse radish peroxidase (HRP)) was added to all the wells and the plate was incubated for one hour on a rotator. After the plates were washed 5 times, as described above, TMB substrate was added to the wells. The plates were read at 650 nm absorbance.
(ELISA stands for enzyme-linked immunosorbent assay.)

Data set [1] can be described thus: Isoelectric points of synthetic peptides. The format is physicochemical.
A further data set deals with T1, hPEPT1 (Homo sapiens, UniProt P46059).
T1 construct: 391-571; made in house
T1 sequence (P46059 391-571): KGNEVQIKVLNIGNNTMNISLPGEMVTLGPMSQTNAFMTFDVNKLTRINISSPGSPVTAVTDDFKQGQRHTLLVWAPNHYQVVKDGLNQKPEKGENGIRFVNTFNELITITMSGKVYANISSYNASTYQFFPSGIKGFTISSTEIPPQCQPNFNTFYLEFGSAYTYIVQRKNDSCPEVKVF
Put plainly: Phage receptor ELISA on hPEPT1. The format is binding. Conditions: for OD, binding to hPEPT1: Table 4, phage panned on hPEPT1; for PEPT1/BSA: ratio of hPEPT1 to BSA binding. As to the method:
as §1

Another data set relates to intestinal tissue. Kind of data set: Preselected phage libraries, rat closed loop: absorption/internalization to intestinal tissue (hybridization autoradiograph). The format is in vivo. Conditions: for binding to the intestine / found in the intestine samples: hPEPT1 pool of phages; for found in the intestinal samples fractions: D2H pool of phages.
The next data set has as its target T2, hSI (Homo sapiens, UniProt P14410).
T2 construct: made in house
Put plainly: Phage receptor ELISA on hSI. The format is binding. Conditions: for OD, binding to hSI: Table 1, phage panned on hSI, absorbance 650 nm; for hSI/BSA: ratio of hSI to BSA binding. As to the method: as §1

A further data set concerns the target T3, D2H (Homo sapiens, UniProt Q07837).
T3 construct: 387-685; made in house
T3 sequence (Q07837 387-685): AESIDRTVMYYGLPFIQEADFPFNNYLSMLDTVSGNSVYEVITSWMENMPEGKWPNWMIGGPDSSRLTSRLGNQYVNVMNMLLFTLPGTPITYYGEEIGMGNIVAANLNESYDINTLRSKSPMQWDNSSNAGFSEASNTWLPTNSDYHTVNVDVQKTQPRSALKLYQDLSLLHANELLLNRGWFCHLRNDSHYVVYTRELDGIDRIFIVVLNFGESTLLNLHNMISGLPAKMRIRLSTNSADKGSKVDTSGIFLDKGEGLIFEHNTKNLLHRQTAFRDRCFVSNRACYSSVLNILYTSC
Put plainly: Phage receptor ELISA on D2H. The format is binding. Conditions: Table 3; for D2H/BSA: ratio of D2H to BSA binding; for OD, binding to D2H: two rounds on D2H, third pan on Caco-2 snapwells. As to the method:
as §1

The subject of data set [2] is fixed Caco-2 or C2BBe1 cells. Put plainly: ELISA of GST fusion proteins on fixed Caco-2 or C2BBe1 cells. The format is binding. As to the method: Fixed Caco-2, C2BBe1, and A431 cell plates were prepared by growing cells on tissue culture treated microtiter plates. When cells were confluent, plates were fixed with 10% formaldehyde, washed twice with PBS and stored with 0.5%BSA-PBS at −20° C. […] The standard ELISA procedure was followed at this point.
The standard ELISA procedure was modified as follows. GST proteins were diluted to an appropriate concentration in PBS containing lkBSA and 0.05% Tween20 (1%BPT), titered and incubated one hour at room temperature. Following five washes an anti-GST monoclonal antibody was added (Sigma, St. Louis Clone GST-2 diluted 1:10,000 in 1%BPT) and incubated one hour. After five more washes goat anti-mouse IgG2b-HRP was added (Southern Biotechnology Associates Inc., Birmingham, Ala., diluted 1:4000 in 1%BPT) and incubated one hour. After five washes plates were developed with TMB peroxidase substrate (Kirkegard and Perry, Gaithersburg, Md.). All data is presented with background binding subtracted.

A further data set deals with fixed Caco-2 cells. Kind of data set: Effect of thrombin cleavage on binding of GST-peptide fusions to fixed Caco-2 cells. Conditions: thrombin 18 h at room temperature. The protocol:
Binding of intact and thrombin-cleaved GST-peptide fusions to fixed Caco-2 cells was compared.
Thirty micrograms of each GST-peptide was treated with bovine thrombin (1 μ/ml; 0.4 NIH units; Sigma CN.T9681) for 18 h at room temperature in 2OmM Tris-HCl pH8.0, 150 mM NaCl, 2.5 mM CaCl2. Controls were similarly treated without addition of thrombin. Ten micrograms of each GST-peptide fusion was removed for PAGE analysis, and 10 μg of fusions were added in duplicate to the fixed Caco-2 cells before 5-fold serial dilutions (1% BPT diluent). The fusions were allowed to bind for 1 h at room temperature. Following 6 washes with 1% BPT, binding was assayed by ELISA.

In data set [3] the test system is P100 membrane fraction derived from Caco-2 cells. Kind of data set: GST-PAX2 peptides relative binding to P100 fractions (ratio to GST-HAX42). Conditions: 20 μg/ml GST-peptide; binding to plastic subtracted; GST-HAX42 = 1.00. The protocol:
The peptides and proteins were analyzed by a dansylated peptide ELISA method in which 96 well plates were coated overnight at 4° C. with 100 μl/well coating protein (normally 100 μg/ml P100 membrane fraction) in 0.05M carbonate buffer pH9.6. Nonspecific binding was blocked using 200 μl/well, 2% Marvel/PBS for 2 hours at 37° C. prior to incubation with dansylated peptides. The plates were washed three times with PBS/0.05% Tween 20 and after each subsequent incubation step. […] A buffer blank control was included to ensure that background binding to plastic was not due to the antibodies used in the assay system. […] The plates were then incubated with an anti-mouse X-HRP conjugated antibody (Southern Biotech 1060-05) at a 1:10,000 dilution in blocking solution, 100 μl/well for 1 hour at room temperature. Plates were developed using 75 μl/well Bionostics TMB substrate and incubated for approximately 10 minutes. The developing reaction was stopped using Bionostics Red Stop solution (25 μl/well), and the optical density of the plates was read at 650nm.
After subtraction of the GST-peptide binding to plastic from P100 binding values, the binding of GST-PAX2 peptides were represented as a ratio of GST-HAX42 binding to P100, which was given the arbitrary value of 1.00. The following ratios were determined from binding to P100 of GST-peptides at a peptide concentration of 20 μg/ml. Bold denotes positive binding to the P100 membrane fraction.

For data set [4], the system named is ZElan024 (P31), ZElan018 (PAX2), ZElan021 (HAX42). Kind of data set: Crossreactive binding of GST fusions to dansylated peptides.

T2 sequence (P14410 272-667): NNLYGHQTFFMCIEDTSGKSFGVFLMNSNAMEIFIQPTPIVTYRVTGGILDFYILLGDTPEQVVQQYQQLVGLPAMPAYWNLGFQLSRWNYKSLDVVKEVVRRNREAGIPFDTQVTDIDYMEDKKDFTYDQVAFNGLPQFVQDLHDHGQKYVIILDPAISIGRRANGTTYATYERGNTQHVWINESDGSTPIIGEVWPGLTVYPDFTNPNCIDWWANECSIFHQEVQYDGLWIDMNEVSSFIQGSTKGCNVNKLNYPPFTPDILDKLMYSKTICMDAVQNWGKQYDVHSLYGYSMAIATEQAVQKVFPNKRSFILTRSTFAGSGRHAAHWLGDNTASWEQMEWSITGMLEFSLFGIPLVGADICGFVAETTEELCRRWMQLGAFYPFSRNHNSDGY
Sequence of BSA (P02769 25-607): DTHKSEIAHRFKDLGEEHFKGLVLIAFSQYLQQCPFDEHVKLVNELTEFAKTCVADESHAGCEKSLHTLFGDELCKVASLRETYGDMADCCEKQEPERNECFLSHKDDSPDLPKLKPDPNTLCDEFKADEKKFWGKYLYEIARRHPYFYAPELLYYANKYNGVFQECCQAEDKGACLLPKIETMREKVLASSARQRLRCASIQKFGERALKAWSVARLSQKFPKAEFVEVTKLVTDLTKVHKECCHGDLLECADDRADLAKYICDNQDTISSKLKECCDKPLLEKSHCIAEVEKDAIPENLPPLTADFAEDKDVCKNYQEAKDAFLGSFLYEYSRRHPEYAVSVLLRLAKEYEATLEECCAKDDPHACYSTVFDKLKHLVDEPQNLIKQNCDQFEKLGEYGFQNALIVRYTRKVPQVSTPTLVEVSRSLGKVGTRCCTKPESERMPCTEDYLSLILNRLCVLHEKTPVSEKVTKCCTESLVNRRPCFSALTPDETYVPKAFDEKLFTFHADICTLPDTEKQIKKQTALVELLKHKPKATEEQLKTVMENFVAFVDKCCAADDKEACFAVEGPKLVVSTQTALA

For “RGSTGTAGGERSGVLNLHTRDNASGSGFKPWYPSNRGHK [Peptide 5PAX5]”, the “OD, binding to BSA” value at BSA (Table 4) was determined as 0.036. Also, the pI in [1] worked out at 11.49. On hPEPT1, the “OD, binding to hPEPT1” value was 0.15 and the PEPT1/BSA turned out to be 4. Besides, the “binding to the intestine / found in the intestine samples” value (“binding to the intestine / found” for short) in the data set with intestinal tissue is reported as “not found in the intestine samples”.

Turning to “RVGQCTDSDVRRPWARSCAHQGCGAGTRNSHGCITRPLRQASAH [Phage SNi10]”, the “found in the intestine samples or fractions” value in the data set with intestinal tissue (hSI pool of phages) is given as “found in the intestine samples or fractions”.

“RVGQCTDSDVRRPWARSCAHQGCGAGTRNSHGCITRPLRQASAH [SNi10]”: the “OD, binding to BSA” value at BSA (Table 1, phage panned on hSI) came out at 0.051. In [1], the pI came to 10.45. Besides, at hSI, the “OD, binding to hSI” value was determined as 0.57 and the hSI/BSA worked out at 11.

As to “RYKHDIGCDAGVDKKSSSVRGGCGAHSSPPRAGRGPRGTMVSRL [DCX8]”, the “OD, binding to BSA” value at BSA (Table 3) was found to be 0.063. On D2H, the D2H/BSA was determined as 3 and the “OD, binding to D2H” value stood at 0.163. In data set [1], the pI worked out at 11.03. Besides, the “found in the intestinal samples fractions” value in the data set with intestinal tissue is “to a much lesser extent”.

Turning to “SARDSGPAEDGSRAVRLNGVENANTRKSSRSNPRGRRHP [Peptide P31]”, the “OD, binding to BSA” value at BSA (Table 4) worked out at 0.075. In [1], this substance returned a pI of 12.26. Besides, at hPEPT1, the “OD, binding to hPEPT1” value is reported as 0.807 and the PEPT1/BSA is recorded as 11. The “binding to the intestine / found” value with intestinal tissue was “preferential binding”.

On to “SPCGGSWGRFMQGGLFGGRTDGCGAHRNRTSASLEPPSSDY [SNi34]”, for which the “OD, binding to BSA” value on BSA (Table 1, phage panned on hSI) amounted to 0.115. This substance returned a pI in data set [1] of 8.25. Moreover, at hSI, the “OD, binding to hSI” value turned out to be 0.761 and the hSI/BSA came out at 7.

As for “SQGSKQCMQYRTGRLTVGSEYGCGMNPARHATPAYPARLLPRYR [DCX11]”, the “OD, binding to BSA” value at BSA (Table 3) is on record as 0.071. On D2H, the D2H/BSA is recorded as 3 and the “OD, binding to D2H” value was 0.222. Also, the pI in [1] came out at 10.44. Besides, the “found in the intestinal samples fractions” value in the data set on intestinal tissue is “found in the intestinal samples fractions”.

Substance “STPPSREAYSRPYSVDSDSDTNAKHSSHNRRLRTRSRPN [PAX2]” showed a pI in [1] of 11.26. For the same substance, the “binding to the intestine / found” value in the data set on intestinal tissue is “not found in the intestine samples”.

With gst-ENANTRKSSRSNPRGRRHP [GST-P31.103], the “binding of truncation to fixed Caco-2 cells relative to full-length fusion” value in [2] is “bound almost as well as full-length P31”. Besides, the “effect of thrombin cleavage on detection of binding” value (shortened to “effect of thrombin cleavage”) with fixed Caco-2 cells is listed as “significantly reduced detection of binding”.

As for gst-RRLRTRSRPN [GST-115], the “Value (binding to P100 as ratio of GST-HAX42 binding)” value in data set [3] was found to be 0.36.

For “gst-RVGQCTDSDVRRPWARSCAHQGCGAGTRNSHGCITRPLRQASAH [GST-SNi10]”, the “binding to fixed Caco-2 or C2BBe1 cells relative to GST control” value in data set [2] is “bound fixed Caco-2 or C2BBe1 cells”. The “effect of thrombin cleavage” value in the data set with fixed Caco-2 cells is “significantly reduced detection of binding”.

Regarding “gst-SDHALGTNLRSDNAKEPGDYNCCGNGNSTGRKVFNRRRPSAIPT [GST-HAX42]”, the “binding to fixed Caco-2 or C2BBe1 cells relative to GST control” value in [2] was “weak to moderate binding”. For the same substance, in data set [3], the “Value (binding to P100 as ratio of GST-HAX42 binding)” value came out at 1.00. Also, in data set [4] (5 μg/ml concentration used in competition assays), the “crossreactivity to ZElan018 (PAX2) and ZElan021 (HAX42)” value is “crossreactivity”.

As for gst-SRPYSVDSDSDTNAKHSSHNR [GST-105], the “Value (binding to P100 as ratio of GST-HAX42 binding)” value in data set [3] is −0.08.

Consider gst-SSHNRRLRTR [GST-114], for which the “Value (binding to P100 as ratio of GST-HAX42 binding)” value in data set [3] was found to be 0.17.

For gst-STPPSREAYSRPYSVDSDSD [GST-104], in data set [3], the “Value (binding to P100 as ratio of GST-HAX42 binding)” value was 0.01.

As for “gst-STPPSREAYSRPYSVDSDSDTNAKHSSHNRRLRTRSRPN [GST-PAX2]”, the “binding to fixed Caco-2 or C2BBe1 cells relative to GST control” value in data set [2] is on record as “bound fixed Caco-2 or C2BBe1 cells”. Also, in data set [3], the “Value (binding to P100 as ratio of GST-HAX42 binding)” value was determined as 1.79. Further, the “crossreactive binding to ZElan024 (P31) and ZElan018 (PAX2)” value in data set [4] (0.5 μg/ml concentration used in competition assays) was “no crossreactive binding”.

As for gst-TNAKHSSHN [GST-113], the “Value (binding to P100 as ratio of GST-HAX42 binding)” value in data set [3] was found to be 0.26.

gst-TNAKHSSHNRRLRTRSRPN [GST-PAX2.106]: in data set [2], the “binding of truncation to fixed Caco-2 cells relative to full-length fusion” value was “bound similarly to full-length PAX2”. The “Value (binding to P100 as ratio of GST-HAX42 binding)” value in data set [3] was determined as 2.71. Moreover, the “effect of thrombin cleavage” value in the data set with fixed Caco-2 cells is “significantly reduced detection of binding”.
